Common to all, as to type: functional, Cricetulus griseus
For experiment [1], the system named is CHO. Kind of experiment: The sensitizing capacity for colchicine treatment of multi drug resistance (MDR) CHO cell at concentration 1.0(mg/L).
Experiment [2] concerns CHO. Put plainly: The sensitizing capacity for colchicine treatment of multi drug resistance(MDR) in CHO cell at concentration 0.1(mg/L).
Experiment [3] deals with CHO. Kind of experiment: Sensitization of colchicine treated parental (PAR)CHO cells, measured at concentration 0.1(mg/L).
The subject of experiment [4] is CHO. Put plainly: The sensitizing capacity for colchicine treatment of parental (PAR)CHO cells at concentration 1.0 (mg/L).

Among the data in ChEMBL document CHEMBL1127553, “Derivatives of a novel cyclopeptolide. 2. Synthesis, activity against multidrug resistance in CHO and KB cells in vitro, and structure-activity relationships” (1994) are Activity values, retold here.

As to `CC[C@@H](C)[C@H]1C(=O)NCC(=O)N(C)[C@@H](C(C)C)C(=O)N[C@@H](Cc2ccc(OC)cc2)C(=O)O[C@H](C)C(=O)N2CCCC[C@H]2C(=O)N(C)[C@@H](C(C)C)C(=O)N[C@@H](C(C)C)C(=O)N(C)[C@H](CC(=O)N[C@H](CO)C(C)C)C(=O)N(C)[C@@H]([C@@H](C)CC)C(=O)N1C`, the Activity amounted to 144 in experiment [1], 3.2 in experiment [2], 7.6 in experiment [3] and 9.8 in experiment [4].
For the compound `CC[C@@H](C)[C@H]1C(=O)NCC(=O)N(C)[C@@H](C(C)C)C(=O)N[C@@H](Cc2ccc(OC)cc2)C(=O)N[C@@H](C)C(=O)N2CCCC[C@H]2C(=O)N(C)[C@@H](C(C)C)C(=O)N[C@@H](C(C)C)C(=O)N(C)[C@H](CC(=O)OC(C)(C)C)C(=O)N(C)[C@@H]([C@@H](C)CC)C(=O)N1C`, the Activity in experiment [1] stood at 144; in experiment [2], 5.2; in experiment [3], 4.6; in experiment [4] it was 6.2.
Regarding `CC[C@@H](C)[C@H]1C(=O)NCC(=O)N(C)[C@@H](C(C)C)C(=O)N[C@@H](Cc2ccc(OCc3ccccc3)cc2)C(=O)O[C@H](C)C(=O)N2CCCC[C@H]2C(=O)N(C)[C@@H](C(C)C)C(=O)N[C@@H](C(C)C)C(=O)N(C)[C@H](CC(=O)O)C(=O)N(C)[C@@H]([C@@H](C)CC)C(=O)N1C`, the Activity is on record as 2.1 in experiment [1], 1.3 in experiment [2], 1.1 in experiment [3] and 3.9 in experiment [4].
Take `CC[C@H](C)[C@H]1C(=O)N(C)[C@@H]([C@@H](C)CC)C(=O)NCC(=O)N(C)[C@@H](C(C)C)C(=O)N[C@@H](Cc2ccc(OC)cc2)C(=O)O[C@H](C)C(=O)N2CCCC[C@H]2C(=O)N(C)[C@@H](C(C)C)C(=O)N[C@@H](C(C)C)C(=O)N(C)[C@H](CC(=O)N2CCC[C@H]2C(=O)OC(C)(C)C)C(=O)N1C`: the Activity is 222 in experiment [1], 10 in experiment [2], 6.8 in experiment [3] and 8.2 in experiment [4].
For the compound `CC[C@H](C)[C@H]1C(=O)NCC(=O)N(C)[C@@H](C(C)C)C(=O)N[C@@H](Cc2ccc(O)cc2)C(=O)O[C@H](C)C(=O)N2CCCC[C@H]2C(=O)N(C)[C@@H](C(C)C)C(=O)N[C@@H](C(C)C)C(=O)N(C)[C@@H](CC(=O)OCc2ccccc2)C(=O)N(C)[C@@H]([C@@H](C)CC)C(=O)N1C`, the Activity in experiment [1] is reported as 26; in experiment [2], 1.2; in experiment [3] it was 4.4; in experiment [4], 14.
On the same counts, the results for `CC[C@@H](C)[C@H]1C(=O)NCC(=O)N(C)[C@@H](C(C)C)C(=O)N[C@@H](Cc2ccc(OC)cc2)C(=O)O[C@H](C)C(=O)N2CCCC[C@H]2C(=O)N(C)[C@@H](C(C)C)C(=O)N[C@@H](C(C)C)C(=O)N(C)[C@H](CC(=O)N2CCCCC2)C(=O)N(C)[C@@H]([C@@H](C)CC)C(=O)N1C` are 137, 3.2, 7.1 and 10.
As for `CC[C@H](C)[C@H]1C(=O)NCC(=O)N(C)[C@@H](C(C)C)C(=O)N[C@@H](Cc2ccc(OC(C)(C)C)cc2)C(=O)O[C@H](C)C(=O)N2CCCC[C@H]2C(=O)N(C)[C@@H](C(C)C)C(=O)N[C@@H](C(C)C)C(=O)N(C)[C@@H](CC(=O)OC(C)(C)C)C(=O)N(C)[C@@H]([C@@H](C)CC)C(=O)N1C`, the Activity in experiment [1] amounted to 300; in experiment [2] it was 28; in experiment [3], 6.7; in experiment [4] it was 9.
The corresponding values for `CC[C@H](C)[C@H]1C(=O)NCC(=O)N(C)[C@@H](C(C)C)C(=O)N[C@@H](Cc2ccc(OC)cc2)C(=O)O[C@H](C)C(=O)N2CCCC[C@H]2C(=O)N(C)[C@@H](C(C)C)C(=O)N[C@@H](C(C)C)C(=O)N(C)[C@@H](CC(=O)OC2C3CC4CC(C3)CC2C4)C(=O)N(C)[C@@H]([C@@H](C)CC)C(=O)N1C` (stereo partly drawn) are 29, 1.1, 3.4 and 6.1.
With `CC[C@H](C)[C@H]1C(=O)NCC(=O)N(C)[C@@H](C(C)C)C(=O)N[C@@H](Cc2ccc(OC)cc2)C(=O)O[C@H](C)C(=O)N2CCCC[C@H]2C(=O)N(C)[C@@H](C(C)C)C(=O)N[C@@H](C(C)C)C(=O)N(C)[C@@H](CC(=O)NC[Si](C)(C)C)C(=O)N(C)[C@@H]([C@@H](C)CC)C(=O)N1C`, the Activity in experiment [1] is listed as 163; in experiment [2] it was 3.3; in experiment [3], 6.7; in experiment [4], 11.
On the same counts, the results for `CC[C@H](C)[C@H]1C(=O)NCC(=O)N(C)[C@@H](C(C)C)C(=O)N[C@@H](Cc2ccc(OC)cc2)C(=O)O[C@H](C)C(=O)N2CCCC[C@H]2C(=O)N(C)[C@@H](C(C)C)C(=O)N[C@@H](C(C)C)C(=O)N(C)[C@@H](CC(=O)OCC23CC4CC(CC(C4)C2)C3)C(=O)N(C)[C@@H]([C@@H](C)CC)C(=O)N1C` are 6.7, 1, 5.9 and 8.5.
The corresponding values for `CC[C@H](C)[C@H]1C(=O)NCC(=O)N(C)[C@@H](C(C)C)C(=O)N[C@@H](CC(=O)OC)C(=O)O[C@H](C)C(=O)N2CCCC[C@H]2C(=O)N(C)[C@@H](C(C)C)C(=O)N[C@@H](C(C)C)C(=O)N(C)[C@@H](CC(=O)OC)C(=O)N(C)[C@@H]([C@@H](C)CC)C(=O)N1C` are 3.5, 1.1, 1.9 and 5.6.
Take `CC[C@@H](C)[C@H]1C(=O)NCC(=O)N(C)[C@@H](C(C)C)C(=O)N[C@@H](Cc2ccc(OC)cc2)C(=O)O[C@@H](C)C(=O)N2CCCC[C@H]2C(=O)N(C)[C@@H](C(C)C)C(=O)N[C@@H](C(C)C)C(=O)N(C)[C@H](CC(=O)NC2CCCCC2)C(=O)N(C)[C@@H]([C@@H](C)CC)C(=O)N1C`: the Activity in experiment [1] is reported as 286; in experiment [2] it was 72.
For the compound `CC[C@@H](C)[C@H]1C(=O)NCC(=O)N(C)[C@@H](C(C)C)C(=O)N[C@@H](Cc2ccc(OC)cc2)C(=O)O[C@@H](C)C(=O)N2CCCC[C@H]2C(=O)N(C)[C@@H](C(C)C)C(=O)N[C@@H](C(C)C)C(=O)N(C)[C@H](CC(=O)N[C@H](C(=O)OC(C)(C)C)C(C)C)C(=O)N(C)[C@@H]([C@@H](C)CC)C(=O)N1C`, the Activity in experiment [1] stood at 344; in experiment [2], 115; in experiment [3] it was 8.6; in experiment [4] it was 11.
As for `CC[C@H](C)[C@H]1C(=O)N(C)[C@@H]([C@@H](C)CC)C(=O)NCC(=O)N(C)[C@@H](C(C)C)C(=O)N[C@@H](Cc2ccc(OC)cc2)C(=O)O[C@H](C)C(=O)N2CCCC[C@H]2C(=O)N(C)[C@@H](C(C)C)C(=O)N[C@@H](C(C)C)C(=O)N(C)[C@H](CN(C)C(C=O)CCCC(=O)OC(C)(C)C)C(=O)N1C` (stereo partly drawn), the Activity in experiment [1] was determined as 114; in experiment [2], 4.2; in experiment [3], 6.8; in experiment [4], 8.2.
For the compound `CC[C@H](C)[C@H]1C(=O)NCC(=O)N(C)[C@@H](C(C)C)C(=O)N[C@@H](Cc2ccc(OC)cc2)C(=O)O[C@H](C)C(=O)N2CCCC[C@H]2C(=O)N(C)[C@@H](C(C)C)C(=O)N[C@@H](C(C)C)C(=O)N(C)[C@@H](CC(=O)OC23CC4CC(CC(C4)C2)C3)C(=O)N(C)[C@@H]([C@@H](C)CC)C(=O)N1C`, the Activity is reported as 77 in experiment [1], 1.9 in experiment [2], 4.5 in experiment [3] and 6 in experiment [4].
For `CC[C@H](C)[C@H]1C(=O)NCC(=O)N(C)[C@@H](C(C)C)C(=O)N[C@@H](Cc2ccc(OC)cc2)C(=O)O[C@H](C)C(=O)N2CCCC[C@H]2C(=O)N(C)[C@@H](C(C)C)C(=O)N[C@@H](C(C)C)C(=O)N(C)[C@@H](CC(=O)OCCC(C)(C)C)C(=O)N(C)[C@@H]([C@@H](C)CC)C(=O)N1C`, the Activity stood at 95 in experiment [1], 1.9 in experiment [2], 7.5 in experiment [3] and 8.7 in experiment [4].
`C=CCNC(=O)C[C@@H]1C(=O)N(C)[C@@H]([C@@H](C)CC)C(=O)N(C)[C@@H]([C@H](C)CC)C(=O)NCC(=O)N(C)[C@@H](C(C)C)C(=O)N[C@@H](Cc2ccc(OC)cc2)C(=O)O[C@H](C)C(=O)N2CCCC[C@H]2C(=O)N(C)[C@@H](C(C)C)C(=O)N[C@@H](C(C)C)C(=O)N1C`: the Activity in experiment [1] is given as 67; in experiment [2], 1.1; in experiment [3] it was 5; in experiment [4], 9.3.
`CC[C@H](C)[C@H]1C(=O)NCC(=O)N(C)[C@@H](C(C)C)C(=O)N[C@@H](Cc2ccc(OC)cc2)C(=O)O[C@H](C)C(=O)N2CCCC[C@H]2C(=O)N(C)[C@@H](C(C)C)C(=O)N[C@@H](C(C)C)C(=O)N(C)[C@@H](CC(=O)OCCC(C)C)C(=O)N(C)[C@@H]([C@@H](C)CC)C(=O)N1C`: the Activity in experiment [1] worked out at 57; in experiment [2], 1.3; in experiment [3], 5.7; in experiment [4], 7.8.
As to `CC[C@@H](C)[C@H]1C(=O)NCC(=O)N(C)[C@@H](C(C)C)C(=O)N[C@@H](Cc2ccc(OC)cc2)C(=O)O[C@H](C)C(=O)N2CCCC[C@H]2C(=O)N(C)[C@@H](C(C)C)C(=O)N[C@@H](C(C)C)C(=O)N(C)[C@H](CC(=O)NC(c2ccccc2)c2ccccc2)C(=O)N(C)[C@@H]([C@@H](C)CC)C(=O)N1C`, the Activity is 147 in experiment [1], 6.4 in experiment [2], 7.5 in experiment [3] and 13 in experiment [4].
Regarding `CC[C@H](C)[C@H]1C(=O)NCC(=O)N(C)[C@@H](C(C)C)C(=O)N[C@@H](Cc2ccc(OC)cc2)C(=O)O[C@H](C)C(=O)N2CCCC[C@H]2C(=O)N(C)[C@@H](C(C)C)C(=O)N[C@@H](C(C)C)C(=O)N(C)[C@@H](CC(=O)OC)C(=O)N(C)[C@@H]([C@@H](C)CC)C(=O)N1C`, the Activity in experiment [1] is 84; in experiment [2] it was 1.9; in experiment [3] it was 6.4; in experiment [4], 8.4.
